Patent US20170355708A1, “POTASSIUM CHANNEL MODULATORS” (Cadent Therapeutics, Inc., priority 2016, published 2017)

biological target: T1, hSK2 channels (Homo sapiens, UniProt P0DP23+Q9H2S1); experiment: Whole-cell patch-clamp recording of SK2 channel current (SC100); type: cell-based; details: Stimulating Concentration required for increasing the baseline current by 100%; HEK293 cells expressing hSK2; Table 3
T1 construct: expressed in transfected cells; host or cells: HEK293
Protocol: The biological activity of certain compounds were determined as follows. The ionic current through small-conductance Ca^2+-activated K^+ channels (SK channels, subtype 2) is recorded using the whole-cell configuration of the patch-clamp technique in a classic patch-clamp set-up using HEK293 tissue culture cells expressing hSK2 channels as described in Kasumu et. al., Chemistry & Biology 19, 1340-1353, Oct. 26, 2012.
The SC100 value determined is defined as the Stimulating Concentration required for increasing the baseline current by 100%.

Row | Structure (SMILES) | SC100 uM
1 | CC(F)c1ccn(-c2nc(Nc3ccc(Cl)cc3)cc(N3CC4(COC4)C3)n2)n1 (stereo not drawn) [Compound 152, N-(4-chlorophenyl)-2-(3-(1-fluoroethyl)-1H-pyrazol-1-yl)-6-(2-oxa-6-azaspiro[3.3]heptan-6-yl)pyrimidin-4-amine] | +++ (+++ means <200 nM)
2 | CC(=O)NCc1cc(Nc2ccc(F)cc2)nc(-n2cc(C)c(C(C)O)n2)c1 (stereo not drawn) [Compound 167, N-((2-((4-fluorophenyl)amino)-6-(3-(1-hydroxyethyl)-4-methyl-1H-pyrazol-1-yl)pyridin-4-yl)methyl)acetamide] | ++ (++ means 200 nM-1000 nM)
3 | Cc1cc(C)n(-c2cc3ccn(C)c3c(Nc3ccc(Cl)cc3)n2)n1 [Compound 144, N-(4-chlorophenyl)-5-(3,5-dimethyl-1H-pyrazol-1-yl)-1-methyl-1H-pyrrolo [2,3-c]pyridin-7-amine] | + (+ means >1 uM)
4 | Cc1cc(C)n(-c2nc(Nc3ccc(F)c(F)c3)cc(N3CC4(COC4)C3)n2)n1 [Compound 111, N-(3,4-difluorophenyl)-2-(3,5-dimethyl-1H-pyrazol-1-yl)-6-(2-oxa-6-azaspiro[3.3]heptan-6-yl)pyrimidin-4-amine] | +++ (+++ means <200 nM)
5 | OCc1ccn(-c2nc(Nc3ccc(F)cc3)cc(N3CCOCC3)n2)n1 [Compound 156, (1-(4-((4-fluorophenyl)amino)-6-morpholinopyrimidin-2-yl)-1H-pyrazol-3-yl)methanol] | + (+ means >1 uM)
6 | N#Cc1ccn(-c2nc(Nc3ccc(Cl)cc3)cc(N3CC4(COC4)C3)n2)n1 [Compound 143, 1-(4-((4-chlorophenyl)amino)-6-(2-oxa-6-azaspiro[3.3]heptan-6-yl)pyrimidin-2-yl)-1h-pyrazole-3-carbonitrile] | ++ (++ means 200 nM-1000 nM)
7 | CC(C)(O)c1ccn(-c2nc(Nc3ccc(F)cc3)cc(N3CCOCC3)n2)n1 [Compound 148, 2-(1-(4-((4-fluorophenyl)amino)-6-morpholinopyrimidin-2-yl)-1H-pyrazol-3-yl)propan-2-ol] | + (+ means >1 uM)
8 | CC(O)c1ccn(-c2nc(Nc3ccc(F)cc3)cc(N3CCOCC3)n2)n1 (stereo not drawn) [Compound 146, 1-(1-(4-((4-fluorophenyl)amino)-6-morpholinopyrimidin-2-yl)-1H-pyrazol-3-yl)ethan-1-ol] | + (+ means >1 uM)
9 | CC(C)(O)c1ccn(-c2nc(Nc3ccc(Cl)cc3)cc(N3CC4(COC4)C3)n2)n1 [Compound 147, 2-(1-(4-((4-chlorophenyl)amino)-6-(2-oxa-6-azaspiro [3.3]heptan-6-yl)pyrimidin-2-yl)-1H-pyrazol-3-yl)propan-2-ol] | ++ (++ means 200 nM-1000 nM)
10 | Cc1cc(C)n(-c2nc(Nc3ccc(F)cc3F)cc(N3CCN[C@H](C(N)=O)C3)n2)n1 (single isomer, unassigned) [Compound 128, (+)-4-(6-((2,4-difluorophenyl)amino)-2-(3,5-dimethyl-1H-pyrazol-1-yl)pyrimidin-4-yl)piperazine-2-carboxamide] | + (+ means >1 uM)
11 | Cc1cc(C)n(-c2nc(Nc3ccc(Cl)cc3)cc(N[C@@H](C)C(N)=O)n2)n1 (single isomer, unassigned) [Compound 124, (−)-2-((6-((4-chlorophenyl)amino)-2-(3,5-dimethyl-1H-pyrazol-1-yl)pyrimidin-4-yl)amino)propanamide] | ++ (++ means 200 nM-1000 nM)
12 | FCc1ccn(-c2nc(Nc3ccc(Cl)cc3)cc(N3CCOCC3)n2)n1 [Compound 151, N-(4-chlorophenyl)-2-(3-(fluoromethyl)-1H-pyrazol-1-yl)-6-morpholinopyrimidin-4-amine] | ++ (++ means 200 nM-1000 nM)
13 | Cc1cc(C)n(-c2nc(Nc3ccc(F)cc3F)cc(N3CCN[C@@H](C(N)=O)C3)n2)n1 (single isomer, unassigned) [Compound 125, (−)-4-(6-((2,4-difluorophenyl)amino)-2-(3,5-dimethyl-1H-pyrazol-1-yl)pyrimidin-4-yl)piperazine-2-carboxamide] | ++ (++ means 200 nM-1000 nM)
14 | Cc1cc(Nc2ccc(Cl)c(C(F)(F)F)c2)nc(-n2ccc(C)n2)n1 [Compound 136, N-(4-chloro-3-(trifluoromethyl)phenyl)-6-methyl-2-(3-methyl-1H-pyrazol-1-yl)pyrimidin-4-amine] | +++ (+++ means <200 nM)
15 | CC(=O)N1CCN(c2cc(-n3nc(C)cc3C)nc(Nc3ccc(F)cc3F)n2)CC1 [Compound 104, 1-(4-(2-((2,4-difluorophenyl)amino)-6-(3,5-dimethyl-1H-pyrazol-1-yl)pyrimidin-4-yl)piperazin-1-yl)ethan-1-one] | ++ (++ means 200 nM-1000 nM)
16 | Cc1cc(C)n(-c2cc(N3CC4(COC4)C3)nc(Nc3ccc(F)cc3F)n2)n1 [Compound 107, N-(2,4-difluorophenyl)-4-(3,5-dimethyl-1H-pyrazol-1-yl)-6-(2-oxa-6-azaspiro[3.3]heptan-6-yl)pyrimidin-2-amine] | + (+ means >1 uM)
17 | CC(=O)NCc1cc(Nc2ccc(F)cc2)nc(-n2ccc(C(F)F)n2)c1 [Compound 160, N-((2-(3-(difluoromethyl)-1H-pyrazol-1-yl)-6-((4-fluorophenyl)amino)pyridin-4-yl)methyl)acetamide] | + (+ means >1 uM)
18 | FCc1ccn(-c2nc(Nc3ccc(F)cc3)cc(N3CCOCC3)n2)n1 [Compound 157, 2-(3-(fluoromethyl)-1H-pyrazol-1-yl)-N-(4-fluorophenyl)-6-morpholinopyrimidin-4-amine] | ++ (++ means 200 nM-1000 nM)
19 | Cc1cc(C)n(-c2nc(Nc3ccc(Cl)cc3)nc3c2ncn3CC#N)n1 [Compound 130, 2-(2-((4-chlorophenyl)amino)-6-(3,5-dimethyl-1H-pyrazol-1-yl)-9H-purin-9-yl)acetonitrile] | ++ (++ means 200 nM-1000 nM)
20 | CCn1cnc2c(-n3nc(C)cc3C)nc(Nc3ccc(F)c(F)c3)cc21 [Compound 120, N-(3,4-difluorophenyl)-4-(3,5-dimethyl-1H-pyrazol-1-yl)-1-ethyl-1H-imidazo[4,5-c]pyridin-6-amine] | + (+ means >1 uM)
21 | Cc1cn(-c2nc(Nc3ccc(F)cc3)cc(OC3COC3)n2)nc1CF [Compound 163, 2-(3-(fluoromethyl)-4-methyl-1H-pyrazol-1-yl)-N-(4-fluorophenyl)-6-(oxetan-3-yloxy)pyrimidin-4-amine] | ++ (++ means 200 nM-1000 nM)
22 | CC(=O)NCc1cc(Nc2ccc(F)cc2)nc(-n2cc(C)c(C(F)F)n2)c1 [Compound 168, N-((2-(3-(difluoromethyl)-4-methyl-1H-pyrazol-1-yl)-6-((4-fluorophenyl)amino)pyridin-4-yl)methyl)acetamide] | +++ (+++ means <200 nM)
23 | FCc1ccn(-c2nc(Nc3ccc(F)cc3)cc(OC3COC3)n2)n1 [Compound 162, 2-(3-(fluoromethyl)-1H-pyrazol-1-yl)-N-(4-fluorophenyl)-6-(oxetan-3-yloxy)pyrimidin-4-amine] | ++ (++ means 200 nM-1000 nM)
24 | Cc1cc(C)n(-c2nc(Nc3ccc(Cl)cc3)nc3c2ncn3CCN)n1 [Compound 133, 9-(2-aminoethyl)-N-(4-chlorophenyl)-6-(3,5-dimethyl-1H-pyrazol-1-yl)-9H-purin-2-amine] | + (+ means >1 uM)
25 | Cc1cc(C)n(-c2nc(Nc3ccc(F)c(F)c3)cc(NC3C4CN(Cc5ccccc5)CC43)n2)n1 (stereo not drawn) [Compound 134, N4-(3-benzyl-3-azabicyclo[3.1.0]hexan-6-yl)-N6-(3,4-difluorophenyl)-2-(3,5-dimethyl-1H-pyrazol-1-yl)pyrimidine-4,6-diamine] | ++ (++ means 200 nM-1000 nM)
26 | CC(O)c1ccn(-c2nc(Nc3ccc(F)cc3)cc(N3CC4(COC4)C3)n2)n1 (stereo not drawn) [Compound 153, 1-(1-(4-((4-fluorophenyl)amino)-6-(2-oxa-6-azaspiro[3.3]heptan-6-yl)pyrimidin-2-yl)-1H-pyrazol-3-yl)ethan-1-ol] | + (+ means >1 uM)

same assay, conditions: Stimulating Concentration required for increasing the baseline current by 100%; HEK293 cells expressing hSK2; Table 4

Row | Structure (SMILES) | SC100 (μM)
27 | Cc1cc(C)n(-c2nc(Nc3ccc(F)cc3)cc(C(C)O)n2)n1 (stereo not drawn) [IN10973-006-P1] | ++ (++ means 200 nM-1000 nM)
28 | Cc1cccc(-c2nccc(Nc3ccc(F)cc3)n2)n1 [IN11130-036-P1] | + (+ means >1 uM)
29 | COc1cc(Nc2ccc(F)cc2F)nc(-c2nc(C)cs2)n1 [IN11059-023-P1] | ++ (++ means 200 nM-1000 nM)
30 | Cc1ccn(-c2nc(Nc3ccc(F)cc3)cc(C(C)O)n2)n1 (stereo not drawn) [IN10882-054-P1] | ++ (++ means 200 nM-1000 nM)
31 | Cc1cc(Nc2ccc(F)cc2)nc(-c2ccc(C)[nH]2)n1 [IN11196-053-P1, N-(4-fluorophenyl)-6-methyl-2-(5-methyl-1H-pyrrol-2-yl)pyrimidin-4-amine] | + (+ means >1 uM)
32 | Cc1csc(-c2nc(Nc3ccc(F)cc3)cc(C(C)O)n2)n1 (stereo not drawn) [IN10880-091-P1, 1-(6-((4-fluorophenyl)amino)-2-(4-methylthiazol-2-yl)pyrimidin-4-yl)ethan-1-ol] | ++ (++ means 200 nM-1000 nM)
33 | Cc1cc(Nc2ccc(F)cc2)nc(-c2nc(C)ccc2C)n1 [IN11237-001-P1, 2-(3,6-dimethylpyridin-2-yl)-N-(4-fluorophenyl)-6-methylpyrimidin-4-amine] | + (+ means >1 uM)
34 | Cc1ccn(-c2cc(CO)cc(Nc3ccc(F)cc3F)n2)n1 [NSSy6773, (2-((2,4-difluorophenyl)amino)-6-(3-methyl-1H-pyrazol-1-yl)pyridin-4-yl) methanol] | ++ (++ means 200 nM-1000 nM)
35 | CN(C)C1CN(c2cc(Nc3ccc(F)cc3)nc(-n3ccc(CF)n3)c2)C1 [NSSy5713] | + (+ means >1 uM)
36 | Cc1cc(Nc2ccc(F)cc2)nc(-c2ccccn2)n1 [IN11121-037-P1, N-(4-fluorophenyl)-6-methyl-2-(pyridin-2-yl)pyrimidin-4-amine] | + (+ means >1 uM)
